The subject of one data set is JAWS II dendritic cells. Kind of data set: LPS-induced TNF-α release by JAWS II dendritic cells (ELISA). The data set is classed as cell-based, mouse. Conditions: for LPS-induced TNF-α, mean values: post-LPS model. On the procedure: JAWS II dendritic cell culture: The JAWS II dendritic cell line is an immortalized cell line derived from bone marrow of C57BL/6 mice (ATCC, Manassas, Va.). The cells were maintained in Alpha-modified minimum essential medium (Sigma, St Louis, Mo.) supplemented with 20% fetal bovine serum (FBS), 4 mM L-glutamine, 100 U/ml penicillin, 100 μg/ml streptomycin, 50 μg/ml gentamicin (Invitrogen, Grand Island, N.Y.) and 5 ng/ml of recombinant murine granulocyte macrophage-colony stimulating factor (Peprotech, Rocky Hill, N.J.). (Awasthi et al., 2005). The culture medium was replaced with fresh medium every 48 h.
The JAWS II dendritic cells (1 million) were treated with SP-A peptides (1 or 10 μM) with or without E. coli derived LPS (75 ng/ml, highly purified, low protein, Calbiochem, CA). In order to observe the anti-inflammatory properties of the SP-A peptides, the cells were treated with peptides for 1 hour prior to addition of LPS (pre-LPS treatment) or after 4 hours incubation with LPS (Post-LPS treatment). The incubation was continued for a total period of 5 hours. Control cells were treated with vehicle, LPS (75 ng/ml), and/or SP-A peptides (1 and 10 μM) for a period of 5 hours. The cell-free supernatants were collected and stored at −80° C. for further analysis.
Cytokine (TNF-α) measurement: The TNF-α levels were measured in cell-free supernatants of JAWS II dendritic cells treated with LPS with or without SP-A peptides by enzyme linked immunosorbent assay (ELISA) as described earlier (Awasthi and Cox, 2003).

In data set [1] the test system is primary adult baboon lung DCs and fetal baboon lung DC-precursor cells. Nature of the data set: Phagocytosis of pHrodo-labeled E. coli bioparticles by primary baboon lung DCs / fetal DC-precursor cells. The data set is classed as cell-based. As for the experimental part: Freshly collected lobe of the lung or whole lung samples of adult and fetal baboons were transported on ice in RPMI 1640 medium containing 2 mM glutamine, 1 mM HEPES, 10 μg/ml gentamicin, 100 U/ml penicillin, 100 μg/ml streptomycin and 10% FBS. After a mild mechanical disruption, the single cell suspension was seeded in a tissue culture flask (Nalge-Nunc International Corp, NY) at a density of 30-50×10^6 leukocytes/175 cm^2 flask in RPMI 1640 medium containing 2 mM glutamine, 1 mM HEPES, 10 μg/ml gentamicin, 100 U/ml penicillin, 100 μg/ml streptomycin and 10% FBS. The light-density DC-populations were harvested using OptiPrep cell-separation solution (density 1.32 g/ml, Accurate Chemicals, NY) (Awasthi and Cooper, 2006; Awasthi et al., 2009). The immunophenotype and basic characteristics of the lung DC-population isolated from fetal and adult baboons have been described earlier (Awasthi et al., 2009). Here, first the immunophenotype of KG-1-derived DCs and fetal baboon lung DC-precursors or adult baboon lung DCs were compared by flow cytometry. Briefly, cells were suspended in Dulbecco's phosphate buffered saline (DPBS) containing 1% FBS and 0.09% sodium azide and incubated with fluorochrome-conjugated antibodies to HLA-DP, DQ, DR, CD11c, CD40, CD80, CD86 (typical DC-markers) as described earlier.
After confirming that the fluorescence is of phagocytosed bioparticles, comprehensive experiments were performed in presence and absence of effector molecules (SP-A and TLR4-MD2 proteins). […] The fluorescence readings were taken at 550 nm excitation and 600 nm emission wavelengths using SpectraMax M2 spectrofluorometer (Molecular Devices, CA).
The phagocytosis index was calculated by subtracting the average fluorescence intensity of the reaction with bioparticles alone from the control (basal without any effector molecules) and experimental wells. Finally, the percent effect was calculated using the following formula: % effect=(Net experimental phagocytosis/Net basal phagocytosis)×100%

A short description of data set [2]: Solubility of purified baboon lung SP-A. Type of data set: physicochemical.

Where no end group is shown, it is not given here.

On to “GDFRYSDGTPVNYTNWYRGE [SPA4, GDFRYSDGT PVNYTNWYRGE]”, for which the “secretion of TNF-α, post-LPS model” value in the data set on JAWS II dendritic cells (peptide added after 4 hours LPS 75 ng/ml, both 1 and 10 μM) is listed as “inhibited the secretion of TNF-α”. For the same substance, the “LPS-induced TNF-α, mean values” in the data set on JAWS II dendritic cells (1 μM peptide) was 6448 pg/mL; with JAWS II dendritic cells (10 μM peptide), 6101 pg/mL.

“SP-A: native surfactant protein-A purified from bronchioalveolar lavage fluid of a normal healthy adult baboon (MWLCPLALTLTLMAASGAACEVKDVCVGSPGIPGTPGSHGLPGRDGRDGVKGDPGPP; listed as Papio cynocephalus)”: the “phagocytic uptake of E. coli” value in data set [1] (SP-A 2 μM, TLR4-MD2 0.3 μM) is “increased”. In addition, in data set [1] (uptake remained increased versus basal), the “phagocytic uptake of E. coli when SP-A and TLR4-MD2 proteins were added together” value is reported as “no additive effect”. The substance further returned a solubility in data set [2] of 51%.

The record behind these values is patent US8623832B2, “Peptide compositions that bind TLR-4” (The Board of Regents of the University of Oklahoma, priority 2011, dated 2014).
